Several values for one entry are separate records, joined by “and”; a condition that tells them apart may be missing. Equal entries are not always repeated. Entries after “also recorded” stand apart in the source; their conditions may differ.

Series [1] is described as follows: Oral bioavailability study with 13C-labeled PPI-1050: labeled glycerolipids in serum. The series is classed as in vivo, mouse. As to conditions: wild-type C57Bl/6 mice. The method, then:
A ^13C-labeled version of PPI-1040, called PPI-1050, was generated to evaluate the ability of the intact compound to cross the gut boundary and enter the bloodstream intact. PPI-1050 contains carbon-13 labels on the three glycerol carbons and 3 carbons of the sn-1 palmitic acid. Wild-type C57/Bl6 mice were treated with a single oral dose of 100 mg/kg PPI-1050 (formulated in Neobee-M5 with 0.1% thioglycerol) or vehicle. Animals were then sacrificed and blood harvested by cardiac puncture at 1, 3 and 6 hours post-treatment (n=3). Serum was then analyzed for presence of incorporation of the label into glycerolipids. Serum extraction was performed on 20 μL aliquots in 1.4 ml Thermo matrix tubes. […] A 100 μL aliquot of the ethyl acetate layer was analyzed using FI-MS/MS on a API4000™ mass spectrometer (Applied Biosystems) coupled with Agilent 1100 HPLC pump and auto sampler. […] The parent PlsEtn mass was determined by incorporating the intact number of 13C labels in the predicted parent together with the corresponding daughter ion (sn2 fatty acid loss) to obtain the quantitative MS/MS transition pair. To confirm the ethanolamine group remained intact upon absorption we also analyzed serum for the presence of labeled alkyl-acyl and vinyl-acyl glycerols using FI-MS/MS analysis in positive mode. All transitions measured can be found in Table 1 below. […]

The subject of a further series is Pex7 hypomorph/null mice. Briefly: 4 weeks oral treatment of Pex7 hypomorph/null animals: plasmalogen levels in plasma and tissues. In kind it is in vivo, mouse. Conditions: 50 mg/kg oral gavage, 5 days per week. The source says:
The Pex7 hypomorph/null model is a hypomorphic (B6;129S6-Pex7^tm2.3Brav/s9) mouse model on a mixed background (C57BL/6NCrl and 129S6/SvEvTac). The hypomorphic allele in Pex7 hypomorph/null was generated by inserting an inverse neo cassette into intron 2 and lox P sites surrounding exon 3. The Pex7 null allele was generated using (B6.C-Tg(cmv-cre)1Cgn/J) mouse. The Pex7 hypomorph/null mouse model has 90% survival, 0.016-0.257% of wild type Pex7 mRNA levels and 20-30% plasmalogen levels Pex7 hypomoprh/null mice (3-4 months); and wild-type animals, males and females included in treatments and behavioral tests. Pex7 hypomorph/null mice were randomly assigned, after a baseline open field test, into 3 treatment groups: PPI-1040, PPI-1011, and vehicle controls, n=6 mice per group). PPI-1011 or PPI-1040 at 50 mg/kg was given by oral gavage 5 days per week (Monday-Friday) for 4 weeks. During the treatment period, animals were weighed weekly and observed for signs of distress. The open field test was performed at the end of treatment. To avoid selection bias, data analysis was performed only at the study end. Animals were sacrificed after a 24-hour post the last dose.
Tissue samples frozen by submersion in liquid nitrogen were homogenized using the Covaris Cryoprep resulting in a fine powder. The powder was then aliquoted using anti-static polypropylene disposable milligram scoops (TWD Tradewinds) resulting in 4-6 mg of tissue per 1.4 ml Thermo matrix tubes. Weights were recorded and metabolite levels were normalized per mg of tissue. HPLC grade water (50 μl) was added into each tube and samples were snap frozen in liquid nitrogen and then stored at −80° C. until extraction. On the day of the extraction, tissue samples were thawed to room temperate and sonicated for 15 mins in an ice bath before mixing at 2000 rpm for a 5 minute and then adding 600 μL of ethyl acetate. Lipids were extracted into ethyl acetate by mixing at 1750 rpm for 1 hr followed by a 10 min centrifugation at 3500 rpm to obtain a clear ethyl acetate layer. Tissue lipid extracts were diluted into an ethyl acetate stock (brain regions diluted 1:10, peripheral tissues 1:5) containing labeled internal standard [^13C-PlsEtn (C37^13C6H74NO7P). Water (40 μL) was added to the diluted extracts and samples were stirred at 1500 rpm for 1 hr followed by a 2 min centrifugation at 3500 rpm.
Plasma extraction was performed on 20 μL aliquots in 1.4 ml Thermo matrix tubes. Lipids were extracted by adding HPLC grade water (50 μl) and ethyl acetate containing labeled internal standard [^13C-PlsEtn (C37^13C6H74NO7P) at 0.2 μg/mL (500 μL) to each plasma sample and then mixing at 1750 rpm for 1 hr followed by a 2 min centrifugation at 3500 rpm for phase separation.
A 100 μL aliquot of the ethyl acetate layer was analyzed using FI-MS/MS on a API4000™ mass spectrometer (Applied Biosystems) coupled with Agilent 1100 HPLC pump and auto sampler. Each transition was scanned for 50 ms with a total acquisition time per sample of 2 min. ethyl acetate:methanol:water ratio of 80:15:5 at a flow rate of 600 μL/min was used as the mobile phase. All standards and stable isotopes used were >95% pure and manufactured by Med-Life Discoveries LP. All the solvents used above were HPLC grade. All samples were analyzed in triplicate to control for any variation resulting from instrument variability. Stable isotope ratios for each analyte were calculated for all tissue and plasma samples (Table 2).

Consider `CC/C=C\C/C=C\C/C=C\C/C=C\C/C=C\C/C=C\CCC(=O)OC(CO/C=C\CCCCCCCCCCCCCC)COP1(=O)NCCO1` (stereo not drawn) [PPI-1040, 1-(((Z)-hexadec-1-en-1-yl)oxy)-3-((2-oxido-1,3,2-oxazaphospholidin-2-yl)oxy)propan-2-yl (4Z,7Z,10Z,13Z,16Z,19Z)-docosa-4,7,10,13,16,19-hexaenoate], for which, in series [1] (single oral dose 100 mg/kg PPI-1050), the oral bioavailability entry was “orally bioavailable and crossed the gut lining intact”. The “intact compound with closed phosphoethanolamine ring in serum” value in series [1] (single oral dose 100 mg/kg PPI-1050, 1, 3, 6 hours) is reported as “not detectable in any samples”. In the series with Pex7 hypomorph/null mice, the “cerebellum tissue plasmalogen levels” value is “did not show augmentation”; the “cortical tissue plasmalogen levels” value is listed as “did not show augmentation”; the kidney plasmalogen levels entry is given as “did not display a clear augmentation in any plasmalogen species; also recorded: did not display a significant level of augmentation in any plasmalogen species”; the liver plasmalogen levels result is “increases in 16:0/18:1, 16:0/18:2 and 16:0/22:6 species reaching statistical significance and 16:0/18:1. 16:0/18:2”. For the same molecule, in the series with Pex7 hypomorph/null mice, the lung plasmalogen levels result is on record as “did not display a clear augmentation in any plasmalogen species; also recorded: did not display a significant level of augmentation in any plasmalogen species”, the “plasma level of the target 16:0/22:6 plasmalogen” value is “normalizing the levels of the target 16:0/22:6 plasmalogen”, the “plasma levels of other 16:0 plasmalogens (re-organization at sn-2)” value is given as “increases in all measured 16:0 plasmalogens with the exception of 16:0/22:4; also recorded: increases in all 16:0 plasmalogens measured except 16:0/22:4” and the “plasma plasmalogen levels (all species measured)” value was “able to augment plasmalogen levels; also recorded: did effectively augment plasmalogen levels”. Moreover, in the series with Pex7 hypomorph/null mice, the “plasma plasmalogens containing 18:0 and 18:1 at sn-1” value was “no augmentation was observed in any of those species”; the “plasmalogen levels in tissues (peripheral and brain)” value is “augmentation observed in the liver, skeletal muscle and small intestine”; the “skeletal muscle plasmalogen levels” value was 16:0/20:5, 16:0/22:6 and total 16:0 plasmalogen pool levels statistically increased; the “small intestine plasmalogen levels” value is 16:0/18:1 and 16:0/18:2 species reaching a statistically significant increase and only 16:0/18:1 and 16:0/18:2 reached significance. Further, in the series with Pex7 hypomorph/null mice, the “vinyl-acyl and alkyl-acyl glycerol levels” value was “None of the alkyl-acyl or vinyl-acyl glycerol species measured were increased”.

These data come from patent US11311560B2, “Cyclic plasmenylethanolamines” (MED-LIFE DISCOVERIES LP, priority 2017, dated 2022).
